Data reported in patent US20110171328A1, “PHARMACEUTICAL COMPOSITION FOR TREATING DIABETES” (priority 2008, published 2011).

Tests used:
α-D-glucosidase = assay: Determination of α-D-glucosidase inhibitory activity (PNPG colorimetry at 400 nm); assay type: biochemical; settings: 30 μL inhibitor sample solution in total, from 5 μmol/mL stock solutions, total amount of DNJ and Fag constant, 37° C.
Source text: Determination of α-D-glucosidase inhibitory activity of the combination compatibility of 1-deoxynojirimycin and fagomine. 1. Medicines: 1-deoxynojirimycin and fagomine, homemade. 2. Reagents: potassium dihydrogen phosphate, sodium hydroxide, sodium bicarbonate, para-nitrophenyl glucoside (PNPG), reduced glutathione and α-D-glucosidase sucrose. 3. Instrument: TU-1901 UV-Vis spectrophotometer. 4. Test method and results (1) Preparation of potassium phosphate buffer solution: dissolve 0.68120 g of potassium dihydrogen phosphate in 25 mL of distilled water, obtain stock solution 1, dissolve 0.2 g of NaOH in 25 mL of the distilled water, obtain stock solution 2, suck the stock solution 1 (25 mL), add into the stock solution 2 (11.8 mL), shake up, dilute to 100 mL and obtain the potassium phosphate buffer solution. (2) Na2CO[…] solution: […] Take 250 μL of the 1-deoxynojirimycin stock solution, dilute to 1 mL with the distilled water, and obtain the stock solution 1. Take 250 μL of the fagomine stock solution, dilute to 1 mL with the distilled water, and obtain the stock solution 2. […] (9) Determination reaction of α-D-glucosidase inhibitory activity Add the reagents according to the sequence in Table 1 for reaction, determine the absorbance value and calculate the α-glycosidase inhibition ratio of a sample according to the following formula: [formula] […]

[1] = system: NOD mice with spontaneous hyperglycemia; assay: Blood glucose of mice with spontaneous hyperglycemia after 14 days intragastric administration; assay type: in vivo; settings: for Blood glucose after administration: 1 h after administration at day 14, fasted 6 h, X ± SD; for Blood glucose before administration: n=10, X ± SD
Experimental: (§1) Impacts of the composition in different doses on blood glucose and serum insulin of mice with spontaneous hyperglycemia
(§2) 1, Medicines: 1-deoxynojirimycin and fagomine, prepared by the inventor. The two are prepared into the required concentrations with distilled water before the test (the sum of the concentrations of the 1-deoxynojirimycin and the fagomine in the composition is the same as the concentration of the fagomine or the 1-deoxynojirimycin which is prepared alone). Glibenclamide is obtained from Hunan Dongting Pharmaceutical Co., Ltd. 2. Animals: NOD mice with the weight of 25-35 g, provided by Experimental Animal Center, Peking University Health Science Center. Determine the blood glucose before the test and select the animals with the blood glucose value of above 11.1 mmol/L for carrying out the test. 3. Determination instrument: Yicheng blood glucose tester, developed by Beijing Yicheng Bioelectronic Technology Co., Ltd. 4. Main reagents: ^125I-insulin radioimmunoassay kit, produced by Department of Isotopes, China Institute of Atomic Energy. 5. Test method and results (1) Impacts on the blood glucose of the mice: determine the blood glucose of the NOD mice after fasting for 6 h, select 70 animals with blood glucose above 11.1 mmol/L, randomly divide into seven groups, respectively carry out intragastric administration and give the following medicines: i) control group (distilled water); ii) glibenclamide group (50 mg/kg); and iii)-v) composition in different mixing ratios (20 mg/kg, with different medicine proportions and constant total amount). Carry out the continuous administration for 14 days, fast for 6 h before the administration at the 14th day, draw blood from the animals 1 h after the administration, use the Yicheng blood glucose tester to determine the blood glucose value of the animals, and determine the serum insulin by radioimmunoassay.

[2] = system: NOD mice with spontaneous hyperglycemia; assay: Serum insulin of mice with spontaneous hyperglycemia (radioimmunoassay); assay type: in vivo; settings: for Serum insulin: 1 h after administration at day 14, X ± SD; for Effect on serum insulin of the NOD mice, result in words: 20 mg/kg, 14 days
Experimental: as §1, §2

[3] = system: SD rats with streptozotocin-induced hyperglycemia; assay: Blood glucose of rats with streptozotocin-induced hyperglycemia after intragastric sucrose; assay type: in vivo; settings: STZ rats, 60 mg/kg intragastric for 14 days
Experimental: Medicines: 1-deoxynojirimycin-fagomine mixture (2:1), homemade. The mixture is prepared to the required concentration with distilled water before the test. Glucobay is obtained from Bayer Healthcare Co., Ltd. Catechin, ginkgo biloba extract and flavonoids from mulberry leaves were obtained from Hunan Geneham Biomedical Technology Ltd. 2. Animals: SD rats with the weight of 180-220 g, half male and half female, provided by Hunan Institute of Pharmaceutical Industry Research. Modeling method: carry out small dose intravenous injection of 25 mg/kg of streptozotocin on the rats after fasting for 24 h, once a week, simultaneously heat feed for feeding, induce H type diabetes, determine the blood glucose 1 week after the second injection, and select the animals with the fasting blood glucose of above 7.8 mmol/L for carrying out the test. […] Reagents: streptozotocin, product of Sigma Company, USA. Use citric acid buffer solution (PH=4.0) before modeling, and prepare at low temperature; sucrose, analytically pure. […] PLUS blood glucose monitoring meter. […]

[4] = 20 mg/kg intragastric for 14 days
[5] = 50 mg/kg intragastric for 14 days

Row | Molecule | α-glycosidase inhibition ratio % (α-D-glucosidase) | Blood glucose after administration [1, 4] | Blood glucose before administration ([1]; 20 mg/kg intragastric) | Effect on blood glucose of the NOD mice, result in words ([1]; 20 mg/kg, 14 days) | Serum insulin [2, 4] | Effect on serum insulin of the NOD mice, result in words [2] | Blood glucose value of rats with hyperglycemia, after administration ([3]; day 14, 1.0 h after 5.0 g/kg sucrose) | Blood glucose value of rats with hyperglycemia, before administration ([3]; day 14, fasted 6 h, before sucrose administration) | Blood glucose after administration [1, 5] | Blood glucose before administration ([1]; 50 mg/kg intragastric) | Serum insulin [2, 5]
1 | OCC1NCC(O)C(O)C1O (stereo not shown) [DNJ] | 44% | 10.60 ± 2.13 mmol/L | 14.20 ± 1.33 mmol/L | significantly reduce the blood glucose | 16.14 ± 2.63 MIU/L | little effect |  |  |  |  | 
2 | Catechin |  |  |  |  |  |  | 14.10 ± 1.50 mmol/L | 9.17 ± 0.89 mmol/L |  |  | 
3 | COc1ccc(Cl)cc1C(=O)NCCc1ccc(S(=O)(=O)NC(=O)NC2CCCCC2)cc1 [Glibenclamide] |  |  |  |  |  |  |  |  | 10.57 ± 2.17 mmol/L | 13.26 ± 2.26 mmol/L | 22.57 ± 3.05 MIU/L
4 | OC[C@H]1NCC[C@@H](O)[C@@H]1O [Fagomine, fagomine] | 21% | 12.24 ± 1.62 mmol/L | 13.49 ± 1.65 mmol/L |  | 21.78 ± 3.34 MIU/L | significantly improve the serum insulin level |  |  |  |  | 
